In brackets after ≈: the same amount, converted by molar mass. Several values for one entry are separate records, joined by “and”; a condition that tells them apart may be missing. Equal entries are not always repeated.
Assays:
[1] = system: Fusarium oxysporum VKM F-140; experiment: Antifungal susceptibility study (1), broth microdilution MIC; assay type: cell-based; conditions: lowest concentration preventing any visible growth, read at 48 hours, 35° C., RPMI 1640 pH 7.0
Procedure, shortened: (§1)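 Broth microdilution was run at pH 7.0 with compounds diluted from DMSO solutions and mixed 1:1 with conidial inoculum. Spore suspensions were adjusted to OD530 0.09-0.11 for A. niger or 0.15-0.17 for F. oxysporum, then diluted 1:50. Plates were incubated at 35° C without agitation, and MIC was read at 48 hours as absence of visible growth.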

[2] = system: Aspergillus niger ATCC 16404; experiment: as above; assay type: cell-based; conditions: lowest concentration preventing any visible growth, read at 48 hours, 35° C., RPMI 1640 pH 7.0
Procedure, shortened: as §1

[3] = system: Candida albicans ATCC 10231; experiment: Antifungal susceptibility study (2), MIC50 by OD490 growth; assay type: cell-based; conditions: 50% growth inhibition from regression curve, M19 medium without NaCl, 30° C.
Experimental: The anti-fungal activity of several of the nystatin derivatives was further investigated. […] The anti-fungal activity of a number of the nystatin derivatives was therefore determined in a method which is designed to be more sensitive.
The test organism used for the further testing of polyene macrolide bioactivity was Candida albicans ATCC 10231, grown in 120 μl of standard M19 medium without NaCl (with an inoculum of 1000 cfu per well) and 30 μl of diluted polyene macrolide samples. The antibiotics were diluted in MeOH in series ensuring a spectrum of concentrations which yielded results ranging from complete growth inhibition to no inhibition of the test organism. The test organism cultures with antibiotic dilutions were incubated in 96-well microtiter plates at 30° C. without shaking, and growth was measured as OD490 after 12, 14 and 16 hours on a SpectraMax Plus microtiter plate reader. OD was plotted against antibiotic concentration, and MIC50 was estimated from the regression curve at 50% growth inhibition.

[4] = system: Candida albicans (strain 14053 ATCC); experiment: In vivo antifungal activity, kidney burden in infected mice; conditions: day 5, individual mice
Experimental: Male mice of hybrids of first generation (C57B1/6xDBA/2)F1 B6D2F1, weight 20-22 g., received from the Central farm. “Kryukovo” of Russian Academies of Medical Science (RAMS) were used. Animals were maintained in a vivarium in plastic cages (with hardwood bedding in environmentally controlled conditions: 24±1° C., 12/12 hours light/dark cycle) on a standard diet of bricketed forages with easy access to drinking water (ad libitum). After a 2-week quarantine period, healthy animals were used in experimental work.
The solutions were prepared as follows: dry antibiotic substances (5 mg) were mixed with dry sodium deoxycholate (4.1 mg) in a sterile glass vial. 10 mL of phosphate buffer (NaH2PO4—1.59 g; Na2HPO4—0.96 g; H2O—to 100 mL) was added to the mix and the suspension was immediately subjected to vigorous shaking for 10 minutes until homogeneous suspensions were formed.
Animals were infected intravenously with Candida albicans culture at a dose of 1.0 million CFU/mouse (volume 0.1 mL). 30 minutes after infection, the antifungal agents were introduced intravenously into the mice at various doses in a volume of 0.2 mL (at a rate of 0.2 mL/30 second). Each dose was administered daily for four days including the day of infection (0, 1, 2 and 3 days).
As a control, there was a group of untreated mice (infected in the same way with Candida albicans). Also there was a “placebo” group of non-infected animals which were intravenously administered (in the same volume as antifungal agent preparations) 0.2 mL of solvent (phosphatic buffer +5% glucose (1:1)).
On the 5th day of experiment, mice were weighed and euthanized (killed) by a cervical dislocation. Then, in sterile conditions, the Candida albicans burden of each mouse was determined by counting of viable homogenates from the kidneys. The kidneys were removed aseptically and weighed, then pounded in porcelain mortars with sterile corundum. Dilutions of the resulting suspensions were prepared and sowed on Petri dishes with agar Saburo, incubated for 24 hours at a temperature of 35° C. Developed colonies of Candida albicans were then counted and their quantity calculated on the basis of 1 g of kidney tissue.

[5] = system: yeasts and filamentous fungi (moulds); experiment: Antifungal susceptibility study (1), overall comparison across the test organisms; assay type: cell-based; conditions: for anti-fungal activity compared with Amphotericin B and S44HP: Table 5 MICs; for antifungal activity, rank within the series: Tables 7 and 8
Experimental: The organisms used for susceptibility testing were: Candida albicans ATCC 14053, Cryptococcus humicolus ATCC 9949, Aspergillus niger ATCC 16404 and Fusarium oxysporum VKM F-140 (=CMI, IMI 90473). Organisms were stored on potato dextrose agar […] 50% glycerol solution at -70° C. For short-term storage, stock cultures were stored on agar […] 4° C. The cultures of yeasts were sub-cultured onto Sabouraud dextrose (SAB) agar and incubated for 24 hours at 35° C. (Candida albicans) or for 48 hours at 25° C. (Cryptococcus humicolus) to obtain a freshly grown pure culture. The cultures of moulds were sub-cultured onto potato dextrose agar and incubated for 7 days at 35° C. […] (Fusarium oxysporum) to ensure maximum sporulation. Sterile 96-well flat-bottomed microtitration plates were used for testing. 100 μl of diluted inocula were dispensed into each microdilution well containing 100 μl of the double dilutions of compounds. Drug-free and yeast/mould-free controls were included. Microdilution trays were incubated at 35° C. (Candida albicans and moulds) or 25° C. (Cryptococcus humicolus) without agitation and observed for the presence or absence of visible growth. […] Minimal inhibitory concentrations (MICs) were read at 48 hours.

[6] = 0.08 mg/kg × 4/24 i.v., colonies per 1 g of kidney tissue
[7] = 0.8 mg/kg × 4/24 i.v., colonies per 1 g of kidney tissue
[8] = 2.5 mg/kg × 4/24 i.v., colonies per 1 g of kidney tissue
[9] = 5 mg/kg × 4/24 i.v., Candida albicans colonies per 1 g of kidney tissue

C[C@@H]1[C@H](O)[C@@H](C)/C=C/C=C/C=C/C=C/C=C/C=C/C=C/[C@H](O[C@@H]2O[C@H](C)[C@@H](O)[C@H](N)[C@@H]2O)C[C@@H]2O[C@](O)(C[C@@H](O)C[C@@H](O)[C@H](O)CC[C@@H](O)C[C@@H](O)CC(=O)O[C@H]1C)C[C@H](O)[C@H]2C(=O)O [Amphotericin B, reference compound]
MIC Fusarium oxysporum VKM F-140 [1]: 4 µg/mL (≈ 4.33 µM) | MIC Aspergillus niger ATCC 16404 [2]: 1 µg/mL (≈ 1.08 µM) | MIC50 [3]: 0.12 µg/mL (≈ 0.13 µM) | Number of Colonies ([4]; 0.08 mg/kg × 4/24 i.v., colonies per 1 g of kidney tissue, listed as Amp B): 1.8 × 10^4 and 2.6 × 10^4 and 3.4 × 10^4 | Number of Colonies ([4]; 0.8 mg/kg × 4/24 i.v., colonies per 1 g of kidney tissue, listed as Amp B): 2 × 10^3 and 6 × 10^3 and 4 × 10^3 | Number of Colonies ([4]; 2.5 mg/kg × 4/24 i.v., colonies per 1 g of kidney tissue, listed as Amp B): 1.0 × 10^3 and 2.2 × 10^2 and 2.8 × 10^2

CC1C=CC=CC=CC=CC=CC=CC=CC(OC2OC(C)C(O)C(N)C2O)CC2OC(O)(CC(O)C(O)CCC(O)CC(O)CC(O)CC(=O)OC(C)C(C)C1O)CC(O)C2C (centres unmarked) [Compound 1]
anti-fungal activity compared with Amphotericin B and S44HP [5]: comparable anti-fungal activity to Amphotericin B and S44HP | MIC Fusarium oxysporum VKM F-140 [1]: 2 µg/mL (≈ 2.24 µM) | MIC Aspergillus niger ATCC 16404 [2]: 1 µg/mL and 2 µg/mL | MIC Aspergillus niger ATCC 16404 ([2]; listed as Comp 1): 2 µg/mL (≈ 2.24 µM) | MIC50 [3]: 0.07 µg/mL (≈ 0.0783 µM) | Number of Colonies [4, 6]: 2.4 × 10^4 (2×) and 2.8 × 10^4 | Number of Colonies [4, 7]: 2.5 × 10^3 and 1.2 × 10^3 and 5.0 × 10^3 | Number of Colonies [4, 8]: 2.0 × 10^1 (2×) and 1.0 × 10^1 | Number of Colonies [4, 9]: 1.0 × 10^1 (2×) and 0

CC1C=CC=CC=CC=CC=CC=CC=CC(OC2OC(C)C(O)C(N)C2O)CC2OC(O)(CC(O)C(O)CCC(O)CC(O)CC(O)CC(=O)OC(C)C(C)C1O)CC(O)C2C(=O)NCCCN(C)C (centres unmarked) [Compound 11, S44HP DMAP Amide]
anti-fungal activity compared with Amphotericin B and S44HP [5]: comparable anti-fungal activity to Amphotericin B and S44HP | MIC Fusarium oxysporum VKM F-140 [1]: 2 µg/mL (≈ 1.98 µM) | MIC Aspergillus niger ATCC 16404 [2]: 2 µg/mL (≈ 1.98 µM) | MIC50 [3]: 0.12 µg/mL (≈ 0.119 µM) | Number of Colonies [4, 6]: 3.0 × 10^4 and 2.7 × 10^4 and 1.5 × 10^4 | Number of Colonies [4, 7]: 1.2 × 10^3 and 3.0 × 10^3 and 2.5 × 10^3 | Number of Colonies [4, 8]: <10^1 and 1.0 × 10^1 (2×) | Number of Colonies [4, 9]: 0 (2×) and <10^1

CC1C=CC=CC=CC=CC=CC=CC=CC(OC2OC(C)C(O)C(N)C2O)CC2OC(O)(CC(O)C(O)CCC(O)CC(O)CC(O)CC(=O)OC(C)C(C)C1O)CC(O)C2C.NC(CCC(=O)O)C(=O)O [Compound 29, Compound 1 L-glutamate]
antifungal activity, rank within the series [5]: most active salt of Compound 1 | MIC Fusarium oxysporum VKM F-140 [1]: 2 µg/mL | MIC Aspergillus niger ATCC 16404 [2]: 2 µg/mL

CC1O[C@@H](O[C@H]2/C=C/C=C/C=C/C=C/C=C/C=C/C=C/[C@H](C)[C@@H](O)[C@@H](C)[C@H](C)OC(=O)C[C@H](O)C[C@H](O)C[C@H](O)CC[C@@H](O)[C@H](O)C[C@]3(O)C[C@H](O)[C@@H](C)[C@H](C2)O3)[C@H](O)C(NC(=O)[C@@H](N)CCCCN)[C@@H]1O (stereo partly drawn) [Compound 51, N-L-Lysyl-Compound 1]
antifungal activity, rank within the series [5]: most active derivative in this series with antifungal activity slightly higher than the parent antibiotic | MIC Fusarium oxysporum VKM F-140 [1]: 2 µg/mL (≈ 1.96 µM) | MIC Aspergillus niger ATCC 16404 [2]: 1 µg/mL (≈ 0.978 µM)

— US8415312B2, “Compound which is a nystatin derivative” (Biosergen AS, priority 2007, dated 2013)
